Results as given in patent publication US4778796A, “ω-(3-pyridyl)alkenamide derivatives and anti-allergenic pharmaceutical compositions containing same” (Dainippon Pharmaceutical Co., Ltd., priority 1985, dated 1988).
Where a name gives a salt, the structure may show the parent alone. Read-outs that look alike come from different tables or passages of the source. Values belong to the molecule of their own block, whether it stands above or below them.

Key:
[1] = molecular target: T1, 5-lipoxygenase (Cavia porcellus, UniProt A0A286X958); experiment: Inhibitory effect on 5-lipoxygenase activity in guinea pig leukocytes; format: biochemical, guinea pig (male Hartley); details: for inhibition at 10 µM: 10^-5 M
T1 construct: The cytosol fraction of peritoneal exudate cells from male Hartley guinea pigs (400-700 g) was used as 5-lipoxygenase; from tissue; host or cells: cytosol fraction of peritoneal exudate cells (leukocytes) of male Hartley guinea pigs
T1 sequence (A0A286X958 1-674): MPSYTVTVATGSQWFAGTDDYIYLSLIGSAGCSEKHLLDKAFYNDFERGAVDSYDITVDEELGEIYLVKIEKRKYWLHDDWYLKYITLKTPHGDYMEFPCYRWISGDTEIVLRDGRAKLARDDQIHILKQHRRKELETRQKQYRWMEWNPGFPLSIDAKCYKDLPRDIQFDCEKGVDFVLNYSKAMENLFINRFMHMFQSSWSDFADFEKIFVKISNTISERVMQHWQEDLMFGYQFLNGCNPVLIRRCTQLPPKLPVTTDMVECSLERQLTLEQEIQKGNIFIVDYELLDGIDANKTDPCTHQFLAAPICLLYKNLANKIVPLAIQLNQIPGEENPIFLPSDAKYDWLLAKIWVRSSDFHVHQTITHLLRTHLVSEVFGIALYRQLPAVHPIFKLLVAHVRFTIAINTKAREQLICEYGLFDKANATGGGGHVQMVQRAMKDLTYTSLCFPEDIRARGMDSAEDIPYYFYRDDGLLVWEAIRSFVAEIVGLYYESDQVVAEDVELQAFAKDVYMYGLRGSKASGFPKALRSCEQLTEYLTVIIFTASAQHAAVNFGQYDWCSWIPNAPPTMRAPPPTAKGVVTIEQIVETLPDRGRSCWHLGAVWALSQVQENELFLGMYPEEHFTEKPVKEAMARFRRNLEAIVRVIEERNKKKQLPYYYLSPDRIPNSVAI
Procedure: (1) Inhibitory effect on 5-lipoxygenase activity in guinea pig leukocytes:
This test was carried out by the method of Miyamoto and Obata (cf. "Perspectives in Prostaglandin Research," ed. by Y. Shiokawa et al., Excepta Medica, Amsterdam-Oxford-Princeton, 1983, p78) with minor modifications.
The cytosol fraction of peritoneal exudate cells from male Hartley guinea pigs (400-700 g) was used as 5-lipoxygenase. The standard reaction mixture contained 50 mM potassium phosphate buffer, 1 mM CaCl2, 1 mM glutathione, 1 mM adenosine triphosphoric acid, 10 μM indomethacin and the enzyme. The mixture was incubated for 5 minutes at 30° C. after addition of [1-^14 C]arachidonic acid (0.02 μCi). The reaction was terminated by addition of 0.6 ml of the cold organic solvents (diethyl ether/methanol/0.2M citric acid=30/4/1). The organic layer (300 μl) was applied onto a precoated silica gel 60F254 glass plate (E. Merck, West Germany). Radioactivity on the plate was monitored by a radiochromatogram scanner (Packard, U.S.A.). 5-Lipoxygenase activity was calculated according to the following equation. [formula]
The effects of the test compounds were expressed in terms of percent inhibition.

[2] = system: histamine-induced contraction of isolated guinea pig trachea; experiment: Inhibitory effect on histamine-induced contraction of isolated guinea pig trachea; set-up: species or system guinea pig (male Hartley); details: for IC50: 3×10^-5 M histamine, isolated guinea pig trachea, read-out: Anti-hist. activity IC50
Procedure: (2) Inhibitory effect on histamine-induced contraction of isolated guinea pig trachea:
Male Hartley guinea pigs (400-700 g) were used. Zig-zag strips of guinea pig trachea were prepared by the method of Emmerson and Mackay [cf. J. Pharm. […] Dose-response curves for histamine were obtained before and 5 minutes after the addition of test compounds. Inhibitory rate was calculated from contraction heights in 3×10^-5 M of histamine without vs. with test compound.

[3] = system: experimental asthma; experiment: Inhibitory effect on experimental asthma in rats; format: in vivo, rat (male Wistar); details: Rattus norvegicus, po
Procedure: (2) Inhibitory effect on experimental asthma in rats: This test was carried out by the method of Church and Miller [cf. Brit. […] Male Wistar rats (200-250 g) were sensitized by an intraperitoneal injection of 1 ml of a 0.01% egg albumin solution containing 1 mg of Al(OH)3. Two weeks later, the rats were anesthetized with 1.3 g/kg of urethane. The trachea and jugular vein were cannulated. Respiratory volume and velocity were measured by attaching one end of the tracheal cannula to respiratory volume meter connected to a carrier amplifier and an integrator. The rats were challenged by an intravenous injection of 4 mg/kg of egg ablumin 30 minutes after the anesthesia. Test compounds, dissolved or suspended in a 0.5% aqueous tragacanth solution, were administered orally 1 hour before the antigen challenge. Each group of 4 rats was used for each dose of the test compound. ED50 values were calculated from the best fit linear regression line of inhibitory rates of respiratory volume and velocity in each dose.

[4] = system: passive cutaneous anaphylaxis (PCA); experiment: Inhibitory effect on passive cutaneous anaphylaxis (PCA) in rats; format: in vivo, rat (male Wistar); details: Rattus norvegicus, read-out: Inhibition (PCA in rats)
Procedure: (1) Inhibitory effect on passive cutaneous anaphylaxis (PCA) in rats:
This test was carried out by the method of Perper et al. [cf.
Male Wistar rats (130-180 g) were injected with 0.1 ml of a dilute solution of mouse antiserum to egg albumin in two sites of the shaved ventral skin. Forty-eight hours later each rat was challenged by an intravenous injection of 2 mg of the antigen together with 1 ml of a 0.5% Evan's blue saline solution. The rats were sacrificed 30 minutes after the challenge. The area of the blueing lesions was measured on the undersurface of the skin. The average value of the two lesions of each rat was regarded as the response of the rat. Test compounds in a dose of 20 mg/kg, dissolved or suspended in a 0.5% aqueous tragacanth solution, were administered orally 1 hour before the antigen challenge. The inhibitory rate was determined by comparing the responses of the rats given each test compound with those of the rats given only a 0.5% aqueous tragacanth solution. Each group of 3 rats was used for each test compound. The mouse antiserum to egg albumin was produced by the method of Levine and Vaz [cf. Int. Arch. Allergy Appl.

[5] = system: contact hypersensitivity to oxazolone; experiment: Inhibitory effect on contact hypersensitivity to oxazolone in mice; format: in vivo, mouse (male ICR); details: topical, 24 hours after challenge
Procedure: (3) Inhibitory effect on contact hypersensitivity to oxazolone in mice:
This test was carried out by the method of Evans et al. [cf. Brit.
Male ICR mice (18-20 g) were used. The abdominal region of the mice was carefully clipped with an electric clipper, and 0.1 ml of a 0.5 w/v % oxazolone solution in absolute ethanol was gently rubbed into the clipped area. Five days after the sensitization 20 μl of a 0.5 w/v % oxazolone solution in acetone or chloroform, or the solution containing test compound was applied to both sides of the right ear. The left ear was not treated. Twenty-four hours after the challenge, the animals were sacrificed with diethyl ether. The circular parts (5.5 mm in diameter) of both ears were removed by punching and then weighed. The inhibitory rate was determined by comparing the ear swelling of the mice treated with oxazolone containing test compound with that of the mice treated with oxazolone. Each group of 8 mice was used for each dose of the test compound.

[6] = system: human basophils; experiment: Inhibitory effect on histamine release induced by anti-human IgE antibody from healthy human basophils; format: cell-based; details: Homo sapiens, read-out: Histamine release inhibit. IC50
Procedure: (3) Inhibitory effect on histamine release induced by anti-human IgE antibody from healthy human basophils:
Basophils from nonallergic volunteers were collected by the method of Levy and Osler [cf. […] The cells were washed once with a cold Tris-A buffer at pH 7.4 (25 mM Tris, 120 mM NaCl, 5 mM KCl and 0.03% human serum albumin) containing 4 mM EDTA and twice with Tris-A buffer. After washing, the cells were resuspended at 5-10×10^6 leukocytes/ml in Tris-ACM buffer at pH 7.6 (Tris-A buffer, 0.6 mM CaCl2 and 1 mM MgCl2). One ml of the cell suspension was incubated with 0.1 ml of a solution of test compound or vehicle for 15 minutes at 37° C., and then for further 45 minutes with 0.1 ml of anti-human IgE antibody. After ice-cooling, the reaction mixtures were centrifuged at 1,200 rpm for 8 minutes at 4° C. The supernatant fluids and the cells were analysed separately for histamine by a modification of the spectrophotofluorometric technique of Shore et al. [cf. […] Histamine release rate was calculated according to the following equation. [formula] A: total histamine (supernatant+cell) B: supernatant histamine without anti-IgE
C: supernatant histamine with anti-IgE
Inhibitory rate was calculated from histamine release rates without vs. with test compound.

[7] = Acute lethal toxicity in mice; details: mouse, in vivo; oral, mortality observed for two weeks
Procedure: Test 3 Acute lethal toxicity in mice
Test compounds were suspended in a 0.5% aqueous tragacanth solution. LD50 values were calculated according to the method of Litchfield and Wilcoxon [cf. J. Pharmacol. Exp. Ther., 96, 99 (1949)].

[8] = read-out: 5-Lipoxygenase inhibit. activity, Inhibition
[9] = 20 mg/kg, oral, 1 hour before antigen challenge

SMILES: O=C(C=Cc1ccccn1)NCCCCN1CCN(C(c2ccccc2)c2ccccc2)CC1 [Example 11]
- inhibition at 10 µM [1, 8]: 59.6%

SMILES: Cc1ccc(C=CC(=O)NCCCCCN2CCN(C(c3ccccc3)c3ccccc3)CC2)cn1 [Example 15]
- inhibition at 10 µM [1, 8]: 48.6%

SMILES: O=C(C=Cc1cccnc1)NCC=CCN1CCN(C(c2ccccc2)c2ccccc2)CC1 [Example 90, N-[3-(3-pyridyl)acryloyl]-4-(4-diphenylmethyl-1-piperazinyl)-2-butenylamin]
- % Inhibition of ear swelling ([5]; 0.3 mg/ear): 46.3%
- inhibition in vivo at 20 mg/kg [4, 9]: 83.3%

SMILES: O=C(C=Cc1ccc(O)nc1)NCCCCN1CCN(C(c2ccccc2)c2ccccc2)CC1 [Example 44]
- inhibition at 10 µM [1, 8]: 45.5%

SMILES: Cc1ncc(C=CC(=O)NCCCCN2CCN(C(c3ccccc3)c3ccccc3)CC2)c(CO)c1O [Example 38, N-[3-(5-hydroxy-4-hydroxymethyl-6-methyl-3-pyridyl)acryloyl]-4-(4-diphenylmethyl-1-piperazinyl)butylamine]
- % Inhibition of ear swelling ([5]; 0.3 mg/ear): 83.8%
- inhibition at 10 µM [1, 8]: 72.7%

SMILES: COc1ccc(C=CC(=O)NCCCCN2CCN(C(c3ccccc3)c3ccccc3)CC2)cn1 [Example 25]
- inhibition at 10 µM [1, 8]: 66.2%

SMILES: CN1CCC(=C2c3ccccc3CC(=O)c3sccc32)CC1 [Ketotifen fumarate, reference compound]
- IC50 [2]: 2.9 nM
- IC50 [6]: > 100000 nM
- ED50 ([3]; read-out: ED50, respiratory velocity): 20.5 mg/kg
- ED50 ([3]; read-out: ED50, respiratory volume): 22.6 mg/kg
- % Inhibition of ear swelling ([5]; 1.0 mg/ear): 49.0%
- 5-lipoxygenase inhibiting activity (in words) ([1]; 10^-4 M): did not exhibit any significant inhibiting activity
- inhibition at 100 µM ([1]; 10^-4 M, read-out: 5-Lipoxygenase inhibit. activity, Inhibition): 11.5%
- LD50 at 336 h [7]: 537 mg/kg
- inhibition in vivo at 20 mg/kg ([4]; po): 54.7%

SMILES: Cc1ccc(O)c(C=CC(=O)NCCCCN2CCN(C(c3ccccc3)c3ccccc3)CC2)n1 [Example 20]
- inhibition at 10 µM [1, 8]: 68.6%

SMILES: Cc1ccc(C=CC(=O)NCCCCN2CCN(C(c3ccccc3)c3ccccc3)CC2)c(C)n1 [Example 50]
- inhibition at 10 µM [1, 8]: 61.2%
- inhibition in vivo at 20 mg/kg [4, 9]: 66.8%

Continued, in another order:

- IC50 [2]: 960 nM
SMILES: O=C(C=Cc1cccnc1)NCCCCN1CCN(C(c2ccccc2)c2ccccc2)CC1 [Example 1, N-[3-(3-pyridyl)acryloyl]-4-(4-diphenylmethyl-1-piperazinyl)butylamine]
- antihistamine activity (in words) ([2]; compared with ketotifen fumarate): potent antihistamine activity, though fairly inferior to that of ketotifen fumarate
- ED50 ([3]; 1 hour before antigen challenge, respiratory velocity, read-out: ED50, respiratory velocity): 14.1 mg/kg
- ED50 ([3]; 1 hour before antigen challenge, respiratory volume, read-out: ED50, respiratory volume): 13.3 mg/kg
- inhibition in vivo at 20 mg/kg [4, 9]: 62.3%

- inhibition at 10 µM [1, 8]: 43.5%
SMILES: C/C(=C\c1cccnc1)C(=O)NCCCCN1CCN(C(c2ccccc2)c2ccccc2)CC1 [Example 76]
- % Inhibition of ear swelling ([5]; 0.3 mg/ear): 65.8%
- inhibition in vivo at 20 mg/kg [4, 9]: 78.9%

- inhibition at 10 µM [1, 8]: 60.3%
SMILES: O=C(C=CC=Cc1cccnc1)NCCCN1CCN(C(c2ccccc2)c2ccccc2)CC1 [Example 84]

- inhibition at 10 µM [1, 8]: 54.6%
SMILES: O=C(C=Cc1ccc(Cl)nc1)NCCCCN1CCN(C(c2ccccc2)c2ccccc2)CC1 [Example 37]
